This note sets out measurements from patent publication US20120190635A1, “SELECTIVE OXIDATION OF C-H BONDS OF MODIFIED SUBSTRATES BY P450 MONOOXYGENASE” (THE REGENTS OF THE UNIVERSITY OF MICHIGAN, priority 2009, published 2012).

In brackets after ≈: the same amount, converted by molar mass.

The subject of assay [1] is Escherichia. coli TolC. Put plainly: antibacterial MIC, microtiter dilution. As to conditions: Mueller Hinten; for MIC: Escherichia coli, read-out: Minimal inhibitory concentration, E. coli W3110 TolC disruption mutant; for Minimal inhibitory concentration: E. coli W3110 TolC disruption mutant.
Assay [2] has as its system Bacillus subtillis DHS5333. Put plainly: antibacterial MIC, microtiter dilution. Particulars: for MIC: Bacillus, DHS5333, read-out: Minimal inhibitory concentration; for Minimal inhibitory concentration: Bacillus subtillis DHS5333, LB.
The subject of assay [3] is Staphylococcus aureus ATCC6538P. Put plainly: antibacterial MIC, microtiter dilution. Particulars: for MIC: Staphylococcus aureus, ATCC6538P, read-out: Minimal inhibitory concentration; for Minimal inhibitory concentration: Staphylococcus aureus ATCC6538P, LB.
In assay [4] the test system is Kocuria rhizophila ATCC9341. Put plainly: antibacterial MIC, microtiter dilution. Particulars: for MIC: Kocuria rhizophila, ATCC9341, read-out: Minimal inhibitory concentration; for Minimal inhibitory concentration: Kocuria rhizophila ATCC9341, Nutrient broth.
Assay [5] deals with Acinetobacter baumannii. Put plainly: antibacterial MIC, microtiter dilution. As to conditions: for MIC: read-out: Minimal inhibitory concentration; for Minimal inhibitory concentration: Mueller Hinten.
The test system of assay [6] is S. aureus NorA. Kind of assay: antibacterial MIC, microtiter dilution. As to conditions: for MIC: Staphylococcus aureus, read-out: Minimal inhibitory concentration; for Minimal inhibitory concentration: S. aureus 8325 NorA disruption mutant, Mueller Hinten.
Assay [7] concerns Deinococcus radiodurans. Put plainly: antibacterial MIC, microtiter dilution. As to conditions: 60 h; for Minimal inhibitory concentration: Special media, 30° C.; for MIC: read-out: Minimal inhibitory concentration, Deinococcus radiodurans, Special media, 30° C.
The subject of assay [8] is Multidrug resistant S. aureus (MRSA). Kind of assay: antibacterial MIC, microtiter dilution. As to conditions: for MIC: Staphylococcus aureus, MRSA, read-out: Minimal inhibitory concentration; for Minimal inhibitory concentration: Multidrug resistant S. aureus (MRSA), Mueller Hinten.
Assay [9] addresses PikCD50N-RhFRED (Streptomyces venezuelae, UniProt O87605, D50N). In kind it is biochemical. As to conditions: for Number of products: Table 1.

PikCD50N-RhFRED, sequence (O87605 other isoform, or with tags, fused parts or gaps D50N): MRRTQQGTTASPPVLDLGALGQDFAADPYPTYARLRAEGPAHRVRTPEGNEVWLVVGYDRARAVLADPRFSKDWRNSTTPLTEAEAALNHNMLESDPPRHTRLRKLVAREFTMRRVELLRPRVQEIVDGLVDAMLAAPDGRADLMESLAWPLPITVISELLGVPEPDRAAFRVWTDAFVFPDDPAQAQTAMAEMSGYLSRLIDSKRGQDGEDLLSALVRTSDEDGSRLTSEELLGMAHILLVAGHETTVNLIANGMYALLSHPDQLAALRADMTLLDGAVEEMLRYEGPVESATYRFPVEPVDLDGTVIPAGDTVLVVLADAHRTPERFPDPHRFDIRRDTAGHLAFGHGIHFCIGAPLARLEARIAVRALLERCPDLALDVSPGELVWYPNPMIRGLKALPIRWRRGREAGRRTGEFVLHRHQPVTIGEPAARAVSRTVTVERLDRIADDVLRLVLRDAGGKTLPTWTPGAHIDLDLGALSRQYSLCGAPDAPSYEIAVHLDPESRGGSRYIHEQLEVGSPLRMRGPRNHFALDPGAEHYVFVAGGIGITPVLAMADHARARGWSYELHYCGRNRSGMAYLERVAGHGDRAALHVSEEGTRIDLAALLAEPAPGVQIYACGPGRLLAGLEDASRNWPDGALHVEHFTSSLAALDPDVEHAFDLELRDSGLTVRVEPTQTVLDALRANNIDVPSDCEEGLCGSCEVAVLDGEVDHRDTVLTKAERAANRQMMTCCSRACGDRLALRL

As to `C[C@@H]1C[C@H](N(C)C)[C@@H](O)[C@H](OC2CCCCCCC(O)CCCCC2)O1` (single isomer, unassigned) [Compound 8-C7OH-a], the MIC in assay [1], in assay [2], in assay [3], in assay [4], in assay [5] and in [6] was over 400 µM in each case. Besides, the MIC in assay [8] is over 400 µM. In assay [7], this compound came in with a Minimal inhibitory concentration of 400 µM (≈ 149 µg/mL).

In the case of `C[C@@H]1C[C@H](N(C)C)[C@@H](O)[C@H](OC2CCCCCCC(O)CCCCC2)O1` (single isomer, unassigned) [Compound 8-C7OH-b], the Minimal inhibitory concentration is 400 µM (≈ 149 µg/mL) in assay [1]; over 400 µM in [2]; over 400 µM in assay [3]; over 400 µM in assay [4]; over 400 µM in assay [5]; over 400 µM in assay [6]. Also, the results for the Minimal inhibitory concentration in assay [7] and in [8] were 100 µM (≈ 37.2 µg/mL) and over 400 µM, respectively.

Consider `CC[C@H]1OC(=O)[C@H](C)[C@@H](O[C@@H]2OC(C)CC(C)C2C)[C@@H](C)C[C@@H](C)C(=O)/C=C/[C@H]1C` (stereo partly drawn) [Compound 1, YC-17, reference compound], for which the MIC in assay [1] is 100 µM (≈ 42.3 µg/mL); in [2], 100 µM (≈ 42.3 µg/mL); in [3] it was 100 µM (≈ 42.3 µg/mL); in assay [4], 100 µM (≈ 42.3 µg/mL); in [5] it was over 400 µM; in assay [6], 100 µM (≈ 42.3 µg/mL). For the same compound, the MIC is 400 µM (≈ 169 µg/mL) in assay [7] and over 400 µM in [8]. In addition, the Number of products in assay [9] (PikCD50N-RhFRED) was found to be 2.

As to `CC[C@H]1OC(=O)[C@H](C)[C@@H](O[C@@H]2O[C@H](C)C[C@H](N(C)C)[C@H]2O)[C@@H](C)C[C@@H](C)C(=O)/C=C/[C@]1(C)O` [Compound 2, methymycin, reference compound], the MIC in [1] is 50 µM (≈ 23.5 µg/mL); in assay [2], 100 µM (≈ 47 µg/mL); in assay [3], 100 µM (≈ 47 µg/mL); in assay [4], 50 µM (≈ 23.5 µg/mL); in assay [5], over 400 µM; in [6], 100 µM (≈ 47 µg/mL). The MIC is 200 µM (≈ 93.9 µg/mL) in assay [7] and over 400 µM in assay [8].

`CC[C@H]1OC(=O)[C@H](C)C(=O)[C@H](C)[C@@H](O[C@@H]2O[C@H](C)C[C@H](N(C)C)[C@H]2O)[C@@H](C)C[C@@H](C)C(=O)/C=C/[C@H]1C` [Compound 4, narbomycin, reference compound]: the Minimal inhibitory concentration was 25 µM (≈ 12.7 µg/mL) in assay [1]; under 3.1 µM in assay [2]; 6.2 µM (≈ 3.16 µg/mL) in assay [3]; under 3.1 µM in [4]; over 400 µM in [5]; 3.1 µM (≈ 1.58 µg/mL) in [6]. Further, the Minimal inhibitory concentration in assay [7] was 100 µM (≈ 51 µg/mL); in assay [8], over 400 µM.

As for `CC[C@H]1OC(=O)[C@H](C)C(=O)[C@H](C)[C@@H](O[C@@H]2O[C@H](C)C[C@H](N(C)C)[C@H]2O)[C@@H](C)C[C@@H](C)C(=O)/C=C/[C@]1(C)O` [Compound 5, pikromycin, reference compound], the Minimal inhibitory concentration in assay [1] is 100 µM (≈ 52.6 µg/mL); in [2] it was 12.5 µM (≈ 6.57 µg/mL); in assay [3], 25 µM (≈ 13.1 µg/mL); in assay [4] it was 6.2 µM (≈ 3.26 µg/mL); in assay [5] it was over 400 µM; in [6], 12.5 µM (≈ 6.57 µg/mL). The Minimal inhibitory concentration was 100 µM (≈ 52.6 µg/mL) in [7] and over 400 µM in assay [8].

`C[C@@H]1C[C@H](N(C)C)[C@@H](O)[C@H](OC2CCCCCCCC(O)CCCC2)O1` (stereo partly drawn) [Compound 8-C6OH-a, (2S,3R,4S,6R)-4-(dimethylamino)-2-(6-hydroxycyclotridecyloxy)-6-methyltetrahydro-2H-pyran-3-ol]: the MIC in [1], in assay [2], in assay [3], in assay [4], in [5] and in assay [6] was over 400 µM each time. Besides, the MIC in [7] and in assay [8] was over 400 µM throughout.

Turning to `C[C@@H]1C[C@H](N(C)C)[C@@H](O)[C@H](OC2CCCCCCCC(O)CCCC2)O1` (stereo partly drawn) [Compound 8-C6OH-b, (2S,3R,4S,6R)-4-(dimethylamino)-2-(6-hydroxycyclotridecyloxy)-6-methyltetrahydro-2H-pyran-3-ol], the Minimal inhibitory concentration in [1], in assay [2], in assay [3], in assay [4], in assay [5] and in [6] was over 400 µM throughout. The values for the Minimal inhibitory concentration in assay [7] and in assay [8] were 400 µM (≈ 149 µg/mL) and over 400 µM, respectively.

With `CC1CC(N(C)C)C(O)C(OC2CCCCC2)O1` (stereo not drawn) [Compound 13, 2-(Cyclohexyloxy)-4-(dimethylamino)-6-methyltetrahydro-2H-pyran-3-ol], the MIC in [1], in assay [2], in assay [3], in assay [4], in assay [5] and in [6] was over 400 µM in each case. Moreover, the MIC in assay [7] and in assay [8] was over 400 µM in each case. Moreover, in assay [9] (PikCD50N-RhFRED), the Number of products is listed as 0.

Consider `CC1CC(N(C)C)C(O)C(OC2CCCC3CCCCC32)O1` (stereo not drawn) [Compound 14, 2-(Decahydronaphthalen-1-yloxy)-4-(dimethylamino)-6-methyltetrahydro-2H-pyran-3-ol], for which the MIC in assay [1], in [2], in assay [3], in assay [4], in assay [5] and in assay [6] was over 400 µM throughout. Also, the MIC in assay [7] and in assay [8] was over 400 µM in each case. Further, in assay [9] (PikCD50N-RhFRED), the Number of products was found to be 0.

`CCCCC#CCOC1OC(C)CC(N(C)C)C1O` (stereo not drawn) [Compound 16, 4-(Dimethylamino)-2-(hept-2-ynyloxy)-6-methyltetrahydro-2H-pyran-3-ol]: the Number of products in [9] (PikCD50N-RhFRED) is reported as 0.

With `C#CCCCCCCCCCOC1OC(C)CC(N(C)C)C1O` (stereo not drawn) [Compound 18, 4-(dimethylamino)-6-methyl-2-(undec-10-ynyloxy)-tetrahydro-2H-pyran-3-ol], the MIC in [1] was 400 µM (≈ 130 µg/mL); in [2], over 400 µM; in assay [3], over 400 µM; in assay [4], over 400 µM; in assay [5], over 400 µM; in assay [6] it was over 400 µM. For the same compound, the MIC in assay [7] and in assay [8] was over 400 µM throughout.

With `CN(C)CCCOC1CCCCCCCCCCCCCC1` [Compound 24, 3-(cyclopentadecyloxy)-N,N-dimethylpropan-1-amine], in assay [9] (PikCD50N-RhFRED), the “yield and selectivity (number of product peaks) relative to 12” value was “improved compared to 12”.

In the case of `OC1CCCCCCCCCCC1` [Cyclododecanol, reference compound], the MIC in assay [1], in [2], in [3], in assay [4], in [5] and in assay [6] was over 400 µM throughout. The MIC in [7] and in [8] was over 400 µM each time. Moreover, the “hydroxylation by PikC / ability to serve as substrate, in words” value in assay [9] is reported as “unable to serve as a substrate”.

For `OC1CCCCCCCCCCCCCC1` [Cyclopentadecanol, reference compound], the MIC in assay [1], in assay [2], in assay [3], in assay [4], in [5] and in assay [6] was over 400 µM each time. Also, the MIC in assay [7] and in assay [8] was over 400 µM throughout.

With `OC1CCCCCCCCCCCC1` [Cyclotridecanol, reference compound], the MIC in assay [1], in [2], in [3], in [4], in [5] and in assay [6] was over 400 µM in each case. Also, the MIC in assay [7] and in assay [8] was over 400 µM each time.

For `CC[C@H]1OC(=O)[C@H](C)[C@@H](O[C@H]2C[C@@](C)(OC)[C@@H](O)[C@H](C)O2)[C@H](C)[C@@H](O[C@@H]2O[C@H](C)C[C@H](N(C)C)[C@H]2O)[C@](C)(O)C[C@@H](C)C(=O)[C@H](C)[C@@H](O)[C@]1(C)O` [Erythromycin, reference compound], the MIC is under 0.8 µM in assay [1]; under 0.8 µM in assay [2]; under 0.8 µM in assay [3]; under 0.8 µM in [4]; 25 µM (≈ 18.3 µg/mL) in assay [5]; under 0.8 µM in assay [6]. Besides, the MIC in [7] was 6.2 µM (≈ 4.55 µg/mL); in [8], over 100 µM.
